Starred links: 1 amine or outer side, 2 acyl side, 3 side chain; linkers in the order of their positions; H or OH if unused. Non-standard residues stand in square brackets, D forms with d. Residues, ends and D or L forms follow the SMILES beside them. Groups on a side chain read outwards from the residue. *: point of attachment. C20 diacid = O=C(O)CCCCCCCCCCCCCCCCCCC(=O)*; C18 diacid = O=C(O)CCCCCCCCCCCCCCCCC(=O)*; γGlu = O=C(O)[C@H](CCC(=O)[*:2])N[*:1]; αMeF = C[C@](N)(Cc1ccccc1)C(=O)O; AEEA = NCCOCCOCC(=O)O; Aib = CC(C)(N)C(=O)O
Experiments:
[1] = molecular target: human GLP-1 receptor (hGLP-1R) (Homo sapiens, UniProt P43220); assay: cAMP production (HTRF) in CHO cells expressing hGLP-1R; assay type: cell-based; design: expressed in transfected cells; conditions: for EC50: Table 7, peptides modified at position 20, cAMP in CHO hGLP-1R cells, geometric mean, read-out: hGLP-1R EC50; for % Relative Potency Ratio: Table 7, % GLP-1R activity relative to GLP-1 / % GlucR activity relative to glucagon
Sequence of human GLP-1 receptor (hGLP-1R) (P43220 24-463): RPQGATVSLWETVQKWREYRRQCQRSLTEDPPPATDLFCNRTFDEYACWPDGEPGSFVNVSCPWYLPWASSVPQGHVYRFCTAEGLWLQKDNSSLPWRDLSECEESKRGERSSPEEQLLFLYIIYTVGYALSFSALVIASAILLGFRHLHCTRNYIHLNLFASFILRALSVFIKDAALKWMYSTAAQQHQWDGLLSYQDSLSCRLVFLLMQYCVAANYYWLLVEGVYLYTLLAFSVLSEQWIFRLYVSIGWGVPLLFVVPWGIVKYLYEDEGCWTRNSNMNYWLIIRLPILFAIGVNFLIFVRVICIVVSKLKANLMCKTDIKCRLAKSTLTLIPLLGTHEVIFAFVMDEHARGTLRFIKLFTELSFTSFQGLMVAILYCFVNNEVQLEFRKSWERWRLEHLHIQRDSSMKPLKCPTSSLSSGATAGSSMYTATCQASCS
Procedure, shortened: (§1)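 Read-out: HTRF cAMP (anti-cAMP cryptate donor, cAMP-d2 acceptor in conjugate/lysis buffer), converted to % Delta F and fitted by 4-parameter logistic for EC50. Cell densities were 1×10^5 cells/mL (hGLP-1R) or 2×10^5 cells/mL (hGCGR). Stimulation lasted 30 min at room temperature.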

[2] = molecular target: human glucagon receptor (hGCGR) (Homo sapiens, UniProt P47871); assay: cAMP production (HTRF) in CHO cells expressing hGCGR; assay type: cell-based; design: expressed in transfected cells; conditions: Table 7, peptides modified at position 20; cAMP in CHO hGCGR cells; geometric mean; read-out: hGluc-R EC50
Sequence of human glucagon receptor (hGCGR) (P47871 26-477): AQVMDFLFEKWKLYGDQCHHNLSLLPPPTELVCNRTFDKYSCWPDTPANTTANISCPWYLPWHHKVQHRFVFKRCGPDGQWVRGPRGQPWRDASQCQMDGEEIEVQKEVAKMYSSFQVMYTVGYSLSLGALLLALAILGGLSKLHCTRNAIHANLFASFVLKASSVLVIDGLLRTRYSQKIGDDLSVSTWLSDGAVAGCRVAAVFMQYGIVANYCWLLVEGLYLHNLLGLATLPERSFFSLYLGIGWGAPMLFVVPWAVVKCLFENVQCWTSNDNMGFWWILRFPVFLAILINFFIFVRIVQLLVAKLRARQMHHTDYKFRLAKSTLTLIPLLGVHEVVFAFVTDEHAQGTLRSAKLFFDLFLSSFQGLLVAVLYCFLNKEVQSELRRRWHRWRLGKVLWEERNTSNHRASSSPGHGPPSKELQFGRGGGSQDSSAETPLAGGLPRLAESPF
Procedure, shortened: as §1

For CC[C@H](C)[C@H](NC(=O)C(C)(C)NC(=O)[C@H](CCC(N)=O)NC(=O)[C@@H](NC(=O)[C@H](Cc1ccccc1)NC(=O)[C@H](CC(=O)O)NC(=O)[C@H](CCCCNC(=O)COCCOCCNC(=O)COCCOCCNC(=O)CC[C@H](NC(=O)CC[C@H](NC(=O)CCCCCCCCCCCCCCCCC(=O)O)C(=O)O)C(=O)O)NC(=O)[C@H](C)NC(=O)[C@H](C)NC(=O)[C@H](CCCNC(=N)N)NC(=O)[C@H](CO)NC(=O)[C@H](CC(=O)O)NC(=O)[C@H](CC(C)C)NC(=O)[C@](C)(Cc1ccccc1)NC(=O)[C@H](CCCCN)NC(=O)[C@H](CO)NC(=O)[C@@H](NC(=O)[C@H](CC(=O)O)NC(=O)[C@H](CO)NC(=O)[C@@H](NC(=O)[C@](C)(Cc1ccccc1)NC(=O)[C@H](CO)NC(=O)CNC(=O)[C@H](Cc1c[nH]cn1)NC(=O)C(C)(C)NC(=O)[C@@H](N)Cc1c[nH]cn1)[C@@H](C)O)C(C)C)C(C)C)C(=O)N[C@@H](C)C(=O)N[C@@H](CC(N)=O)C(=O)N[C@H](C(=O)NCC(=O)NCC(N)=O)[C@@H](C)O [Peptide 237] (H-H[Aib]HGS[αMeF]TSDVSK[αMeF]LDSRAAK([AEEA-AEEA-γGlu-γGlu-C18 diacid])DFVQ[Aib]IANTGG-NH2; N-terminus assumed), the EC50 [1] was 0.0267 nM, the “% Relative Potency Ratio” value [1] was 22.1 and the EC50 [2] was 0.299 nM.
With CC[C@H](C)[C@H](NC(=O)[C@H](Cc1c[nH]c2ccccc12)NC(=O)[C@H](CCC(N)=O)NC(=O)[C@@H](NC(=O)[C@](C)(Cc1ccccc1)NC(=O)[C@H](CC(=O)O)NC(=O)[C@H](CCCCNC(=O)COCCOCCNC(=O)COCCOCCNC(=O)CC[C@H](NC(=O)CC[C@H](NC(=O)CCCCCCCCCCCCCCCCCCC(=O)O)C(=O)O)C(=O)O)NC(=O)[C@H](C)NC(=O)[C@H](C)NC(=O)[C@H](CCCNC(=N)N)NC(=O)[C@H](CO)NC(=O)[C@H](CC(=O)O)NC(=O)[C@H](CC(C)C)NC(=O)[C@](C)(Cc1ccccc1)NC(=O)[C@H](CCCCN)NC(=O)[C@H](CO)NC(=O)[C@@H](NC(=O)[C@H](CC(=O)O)NC(=O)[C@H](CO)NC(=O)[C@@H](NC(=O)[C@](C)(Cc1ccccc1)NC(=O)[C@H](CO)NC(=O)CNC(=O)[C@H](Cc1c[nH]cn1)NC(=O)C(C)(C)NC(=O)[C@@H](N)Cc1c[nH]cn1)[C@@H](C)O)C(C)C)C(C)C)C(=O)N[C@@H](C)C(=O)N[C@@H](CC(N)=O)C(=O)N[C@H](C(=O)NCC(N)=O)[C@@H](C)O [Peptide 238] (H-H[Aib]HGS[αMeF]TSDVSK[αMeF]LDSRAAK([AEEA-AEEA-γGlu-γGlu-C20 diacid])D[αMeF]VQWIANTG-NH2) the EC50 [1] was 0.155 nM, the “% Relative Potency Ratio” value [1] was 12.7 and the EC50 [2] was 0.99 nM.
CC[C@H](C)[C@H](NC(=O)[C@H](Cc1c[nH]c2ccccc12)NC(=O)[C@H](CCC(N)=O)NC(=O)[C@@H](NC(=O)[C@](C)(Cc1ccccc1)NC(=O)[C@H](CC(=O)O)NC(=O)[C@H](CCCCNC(=O)COCCOCCNC(=O)COCCOCCNC(=O)CC[C@H](NC(=O)CC[C@H](NC(=O)CCCCCCCCCCCCCCCCCCC(=O)O)C(=O)O)C(=O)O)NC(=O)[C@H](C)NC(=O)[C@H](C)NC(=O)[C@H](CCCNC(=N)N)NC(=O)[C@H](CO)NC(=O)[C@H](CC(=O)O)NC(=O)[C@H](CC(C)C)NC(=O)[C@](C)(Cc1ccccc1)NC(=O)[C@H](CCCCN)NC(=O)[C@H](CO)NC(=O)[C@@H](NC(=O)[C@H](CC(=O)O)NC(=O)[C@H](CO)NC(=O)[C@@H](NC(=O)[C@](C)(Cc1ccccc1)NC(=O)[C@H](CO)NC(=O)CNC(=O)[C@H](Cc1c[nH]cn1)NC(=O)C(C)(C)NC(=O)[C@@H](N)Cc1c[nH]cn1)[C@@H](C)O)C(C)C)C(C)C)C(=O)N[C@@H](C)C(=O)N[C@@H](CC(N)=O)C(=O)N[C@H](C(=O)NCC(=O)NCC(N)=O)[C@@H](C)O [Peptide 239] (H-H[Aib]HGS[αMeF]TSDVSK[αMeF]LDSRAAK([AEEA-AEEA-γGlu-γGlu-C20 diacid])D[αMeF]VQWIANTGG-NH2) was tested, and the EC50 [1] was 0.105 nM, the “% Relative Potency Ratio” value [1] was 13.2 and the EC50 [2] was 0.705 nM.
